According to ChEMBL document CHEMBL5136973, “Update on the Development of MNK Inhibitors as Therapeutic Agents” (J Med Chem, 2022):
Each block holds one molecule with its values, some of them ahead of it.

Assays:
[1] = molecular target: T1, MAP kinase-interacting serine/threonine-protein kinase 1 (Homo sapiens, UniProt Q9BUB5); assay: Inhibition of Mnk1 (unknown origin)
[2] = molecular target: T2, MAP kinase-interacting serine/threonine-protein kinase 2 (Homo sapiens, UniProt Q9HBH9); assay: Inhibition of Mnk2 (unknown origin)
Target sequence in this assay (Q9HBH9 whole entry): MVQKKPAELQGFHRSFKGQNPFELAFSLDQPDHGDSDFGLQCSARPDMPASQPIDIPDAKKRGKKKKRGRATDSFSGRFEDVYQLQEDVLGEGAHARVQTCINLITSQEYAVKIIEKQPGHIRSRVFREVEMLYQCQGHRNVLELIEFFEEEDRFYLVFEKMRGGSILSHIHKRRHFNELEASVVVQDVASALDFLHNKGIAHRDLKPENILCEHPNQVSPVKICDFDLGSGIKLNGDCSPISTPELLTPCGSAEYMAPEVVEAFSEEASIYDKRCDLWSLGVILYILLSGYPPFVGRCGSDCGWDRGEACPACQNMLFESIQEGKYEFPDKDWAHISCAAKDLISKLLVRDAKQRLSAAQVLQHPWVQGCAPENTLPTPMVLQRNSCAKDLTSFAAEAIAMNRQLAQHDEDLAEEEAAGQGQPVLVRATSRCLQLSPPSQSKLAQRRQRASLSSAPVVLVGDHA

[3] = molecular target: T2, MAP kinase-interacting serine/threonine-protein kinase 2; assay: Inhibition of MNK2 (unknown origin) at 123 nM
Target sequence in this assay (Q9HBH9 whole entry, looked up): as the sequence (Q9HBH9 whole entry) above

[4] = Antitumor activity against human Lu7462 patient-derived NSCLC cells xenografted in female NMRI-nu/nu mouse assessed as T/C ratio at 200 mg/kg, po, qd for 94 days; type: functional; settings: time 94 day
[5] = Volume of distribution at steady state in female NMRI-nu/nu mouse; type: ADME; settings: in vivo, read-out: Vdss
[6] = Clearance in female NMRI-nu/nu mouse; type: ADME; settings: in vivo
[7] = Intermediate elimination half life in male RH:Foxn1 nude rat; type: ADME; settings: in vivo, read-out: beta t1/2 (converted)
[8] = Intermediate elimination half life in female NMRI-nu/nu mouse; type: ADME; settings: in vivo, read-out: beta t1/2 (converted)
[9] = Clearance in male RH:Foxn1 nude rat; type: ADME; settings: in vivo
[10] = Oral bioavailability in female NMRI-nu/nu mouse; type: ADME, organism-based; settings: in vivo
[11] = Volume of distribution at steady state in male RH:Foxn1 nude rat; type: ADME; settings: in vivo, read-out: Vdss
[12] = Oral bioavailability in male RH:Foxn1 nude rat; type: ADME, organism-based; settings: in vivo
[13] = molecular target: T2, MAP kinase-interacting serine/threonine-protein kinase 2; assay: Inhibition of His-tagged Mnk2 (unknown origin) using eIF4E-derived (D 202 TATKSGSTTKNR 214) peptide as substrate incubated for 90 mins by IMAP TR-FRET assay
Target sequence in this assay (Q9HBH9 whole entry): as above

[14] = molecular target: T1, MAP kinase-interacting serine/threonine-protein kinase 1; assay: Inhibition of Mnk1 (unknown origin) using eIF4E-derived (D 202 TATKSGSTTKNR 214) peptide as substrate incubated for 90 mins by IMAP TR-FRET assay
[15] = molecular target: T2, MAP kinase-interacting serine/threonine-protein kinase 2; assay: Binding affinity to His-tagged Mnk2 (unknown origin) using D 202 TATKSGSTTKNR 214 as substrate by TR-FRET assay
Target sequence in this assay (Q9HBH9 whole entry): as above

MV4-11 [16] = assay: Growth inhibition of human MV4-11 cells incubated for 72 hrs by multilabel plate reader method; type: functional
[17] = Growth inhibition of human Acute myeloid leukemic cells incubated for 72 hrs by multilabel plate reader method; type: functional; settings: Acute myeloid leukemic cell
[18] = molecular target: T1, MAP kinase-interacting serine/threonine-protein kinase 1; assay: Inhibition of inactive form of MNK1 (unknown origin)
MV4-11 [19] = assay: Induction of cell cycle arrest in human MV4-11 cells assessed as increase in sub G1/G2 DNA content at 20 uM (reference value: 64%); type: functional
[20] = molecular target: T1, MAP kinase-interacting serine/threonine-protein kinase 1; assay: Inhibition of Mnk1 (unknown origin) by ADP-Glo assay
[21] = molecular target: T2, MAP kinase-interacting serine/threonine-protein kinase 2; assay: Inhibition of Mnk2 (unknown origin) by ADP-Glo assay
Target sequence in this assay (Q9HBH9 whole entry): as above

[22] = molecular target: T1, MAP kinase-interacting serine/threonine-protein kinase 1; assay: Binding affinity to Mnk1 (unknown origin)
[23] = molecular target: T2, MAP kinase-interacting serine/threonine-protein kinase 2; assay: Binding affinity to Mnk2 (unknown origin)
Target sequence in this assay (Q9HBH9 whole entry): as above

MV4-11 [24] = assay: Growth inhibition of human MV4-11 cells measured after 72 hrs; type: functional
PC-3 = assay: Antiproliferative activity against human PC-3 cells; type: functional
MOLM-13 = assay: Antiproliferative activity against human MOLM-13 cells; type: functional
A2780 = assay: Antiproliferative activity against human A2780 cells; type: functional
SK-OV-3 = assay: Antiproliferative activity against human SK-OV-3 cells; type: functional
[25] = molecular target: T1, MAP kinase-interacting serine/threonine-protein kinase 1; assay: Inhibition of FLAG-tagged Mnk1 (unknown origin) transfected into HEK293 cells incubated for 30 mins followed by ATP addition measured after 30 mins by Western blotting analysis; type: cell-based
[26] = molecular target: T3, Tyrosine-protein kinase JAK3 (Homo sapiens, UniProt P52333); assay: Inhibition of JAK3 (unknown origin)
T3 sequence (P52333 whole entry): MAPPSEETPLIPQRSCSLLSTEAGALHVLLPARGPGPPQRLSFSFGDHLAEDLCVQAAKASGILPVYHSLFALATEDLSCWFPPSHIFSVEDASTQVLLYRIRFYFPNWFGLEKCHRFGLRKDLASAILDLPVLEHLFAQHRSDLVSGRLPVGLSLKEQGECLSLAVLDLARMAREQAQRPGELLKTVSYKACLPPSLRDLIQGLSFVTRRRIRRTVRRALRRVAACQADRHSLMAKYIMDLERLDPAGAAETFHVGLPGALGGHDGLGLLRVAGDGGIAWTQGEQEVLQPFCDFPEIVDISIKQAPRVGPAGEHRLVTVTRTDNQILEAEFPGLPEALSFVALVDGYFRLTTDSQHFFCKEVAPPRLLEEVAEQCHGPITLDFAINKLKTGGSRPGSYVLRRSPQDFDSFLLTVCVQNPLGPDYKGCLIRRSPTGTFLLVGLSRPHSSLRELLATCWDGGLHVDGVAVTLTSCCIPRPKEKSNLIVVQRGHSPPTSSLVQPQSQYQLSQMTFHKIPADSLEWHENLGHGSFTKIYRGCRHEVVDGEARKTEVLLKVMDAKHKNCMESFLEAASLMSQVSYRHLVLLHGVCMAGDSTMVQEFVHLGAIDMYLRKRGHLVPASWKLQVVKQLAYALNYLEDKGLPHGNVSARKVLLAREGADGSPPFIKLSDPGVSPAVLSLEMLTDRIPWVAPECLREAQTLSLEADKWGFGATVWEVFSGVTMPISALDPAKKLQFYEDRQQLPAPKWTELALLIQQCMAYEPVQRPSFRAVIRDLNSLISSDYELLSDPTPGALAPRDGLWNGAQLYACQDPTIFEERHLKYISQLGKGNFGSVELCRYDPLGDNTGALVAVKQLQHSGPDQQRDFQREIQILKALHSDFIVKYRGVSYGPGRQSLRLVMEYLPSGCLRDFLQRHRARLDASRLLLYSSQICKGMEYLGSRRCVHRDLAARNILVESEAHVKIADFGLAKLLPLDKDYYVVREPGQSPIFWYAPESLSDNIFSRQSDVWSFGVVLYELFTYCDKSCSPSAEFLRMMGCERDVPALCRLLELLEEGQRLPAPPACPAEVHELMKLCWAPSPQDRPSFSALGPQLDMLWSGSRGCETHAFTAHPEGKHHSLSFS

[27] = molecular target: Tyrosine-protein kinase BTK (Homo sapiens, UniProt Q06187); assay: Inhibition of FLAG-tagged BTK (unknown origin) transfected into HEK293T cells incubated for 30 mins followed by ATP addition measured after 20 mins by Western blotting analysis; type: cell-based, HEK293
[28] = molecular target: T2, MAP kinase-interacting serine/threonine-protein kinase 2; assay: Inhibition of FLAG-tagged Mnk2 (unknown origin) transfected into HEK293 cells incubated for 30 mins followed by ATP addition measured after 30 mins by Western blotting analysis; type: cell-based
Target sequence in this assay (Q9HBH9 whole entry): as the sequence (Q9HBH9 whole entry) above

T1 sequence (Q9BUB5 whole entry): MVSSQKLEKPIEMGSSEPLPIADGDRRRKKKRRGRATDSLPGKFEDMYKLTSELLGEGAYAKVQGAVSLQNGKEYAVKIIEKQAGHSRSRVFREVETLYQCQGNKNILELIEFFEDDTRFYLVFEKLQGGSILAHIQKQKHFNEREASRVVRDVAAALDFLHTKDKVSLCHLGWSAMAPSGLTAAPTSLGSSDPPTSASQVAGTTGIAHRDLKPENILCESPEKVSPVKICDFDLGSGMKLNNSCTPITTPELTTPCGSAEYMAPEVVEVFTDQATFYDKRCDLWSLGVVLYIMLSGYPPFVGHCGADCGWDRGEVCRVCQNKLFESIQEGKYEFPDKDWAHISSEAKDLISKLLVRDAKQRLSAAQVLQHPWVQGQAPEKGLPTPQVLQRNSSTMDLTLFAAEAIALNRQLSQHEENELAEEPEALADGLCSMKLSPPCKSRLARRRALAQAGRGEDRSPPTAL
Sequence of Tyrosine-protein kinase BTK (Q06187 whole entry): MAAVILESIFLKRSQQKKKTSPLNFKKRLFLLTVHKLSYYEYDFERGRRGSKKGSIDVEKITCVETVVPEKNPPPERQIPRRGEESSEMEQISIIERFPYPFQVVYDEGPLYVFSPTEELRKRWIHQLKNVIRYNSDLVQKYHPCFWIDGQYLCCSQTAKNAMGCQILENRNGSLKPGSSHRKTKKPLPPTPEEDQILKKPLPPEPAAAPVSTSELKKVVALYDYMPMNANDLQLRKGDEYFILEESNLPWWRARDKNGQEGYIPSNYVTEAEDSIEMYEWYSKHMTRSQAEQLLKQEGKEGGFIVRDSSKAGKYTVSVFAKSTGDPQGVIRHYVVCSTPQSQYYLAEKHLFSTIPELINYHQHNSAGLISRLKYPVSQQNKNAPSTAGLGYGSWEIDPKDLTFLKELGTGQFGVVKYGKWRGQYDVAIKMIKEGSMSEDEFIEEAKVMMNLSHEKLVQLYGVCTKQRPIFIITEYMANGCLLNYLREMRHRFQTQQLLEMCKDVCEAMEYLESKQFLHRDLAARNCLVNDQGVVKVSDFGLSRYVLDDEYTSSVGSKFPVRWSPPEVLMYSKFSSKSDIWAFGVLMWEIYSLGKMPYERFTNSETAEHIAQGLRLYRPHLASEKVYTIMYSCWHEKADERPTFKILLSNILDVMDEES

SMILES: COc1cc(N=S(C)(=O)C(C)(C)C)cc2ncnc(Nc3ccc(F)cc3O[C@H]3COC[C@H]3O)c12 (stereo partly drawn)
IC50 [1]: 329 nM

SMILES: CC(C)Oc1cc(F)ccc1Nc1ncnc2cc(C(=O)NCCCN(C)C)n(C)c12
IC50 ([1]; read-out: pIC50 (converted)): 50.1 nM
IC50 [2]: 39.8 nM

SMILES: CC(C)Oc1cc(F)ccc1Nc1ncnc2cc(C(=O)NCC3CCNCC3)n(C)c12
IC50 ([1]; read-out: pIC50 (converted)): 39.8 nM
IC50 [2]: 39.8 nM

SMILES: Fc1ccc2c(c1)CCN2c1ncnc2cc[nH]c12
IC50 ([1]; read-out: pIC50 (converted)): 39.8 nM
IC50 [2]: 31.6 nM

SMILES: Cn1ccc2ncnc(Nc3ccc(F)cc3O[C@@H]3CCCOC3)c21
IC50 ([1]; read-out: pIC50 (converted)): 63.1 nM
IC50 [2]: 31.6 nM

SMILES: CC(C)Oc1cc(C#N)ccc1Nc1ncnc2ccn(C)c12
IC50 ([1]; read-out: pIC50 (converted)): 50.1 nM
IC50 [2]: 25.1 nM

SMILES: CC1(C)CN(c2ncnc3sc(C(=O)NCC4CCNCC4)nc23)c2ccccc21
IC50 ([1]; read-out: pIC50 (converted)): 3.16 nM
IC50 [2]: 2.51 nM

SMILES: CO[C@@H]1COC[C@@H]1Oc1cc(F)ccc1Nc1ncnc2cc(N=S3(=O)CCCC3)cc(Cl)c12
IC50 [1]: 45 nM

SMILES: COc1cc(N=S2(=O)CCC2)cc2ncnc(Nc3cccnc3O[C@H]3COC[C@H]3O)c12
IC50 [1]: 104 nM

SMILES: Cn1ccc2ncnc(Nc3ccc(F)cc3OC3CCCC3)c21
IC50 ([1]; read-out: pIC50 (converted)): 126 nM
IC50 [2]: 31.6 nM

SMILES: CO[C@@H]1COC[C@@H]1Oc1cc(F)ccc1Nc1ncnc2cc(N=S(C)(C)=O)cc(C)c12
IC50 [1]: 80 nM

SMILES: Nc1cccc2c1cnn2-c1ncnc2[nH]ccc12
Activity (MV4-11 [19]): 92%

SMILES: Fc1ccc(Nc2ncnc3[nH]ccc23)nc1
Ki [22]: 1080 nM
Ki [23]: 430 nM
GI50 (MV4-11 [24]): 8.19 µM

SMILES: O=C1NC2(CCCCC2)n2c1c(Cl)cc(Nc1ccncn1)c2=O
GI50 (PC-3): < 10 µM
GI50 (MOLM-13): < 10 µM
GI50 (A2780): < 10 µM
GI50 (SK-OV-3): < 10 µM

SMILES: Cn1ccc2ncnc(Nc3ccc(F)cc3OC(CF)CF)c21
IC50 ([1]; read-out: pIC50 (converted)): 158 nM
IC50 [2]: 50.1 nM

SMILES: CN(C)CCCNC(=O)c1nc2c(N3CC(C)(C)c4ccccc43)ncnc2s1
IC50 ([1]; read-out: pIC50 (converted)): 6.31 nM
IC50 [2]: 3.98 nM

Continued, in another order:

IC50 ([1]; read-out: pIC50 (converted)): 5.01 nM
IC50 [2]: 3.98 nM
SMILES: O=C(NCC1CCNCC1)c1nc2c(N3CCc4cc(F)ccc43)ncnc2s1

inhibition [3]: 51%
SMILES: Cc1ncc(C(=O)Nc2ccc(CN3CCN(C)CC3)c(C(F)(F)F)c2)cc1C#Cc1cnc2cccnn12

inhibition [3]: 32%
SMILES: Cc1ccc(C(=O)Nc2ccc(CN3CCN(C)CC3)c(C(F)(F)F)c2)cc1C#Cc1cnc2cccnn12

Vd [5]: 6 L/kg
clearance [6]: 39 mL/min/kg
half-life [7]: 72 min
half-life [8]: 72 min
clearance [9]: 6.83 mL/min/kg
bioavailability [10]: 71%
Vd [11]: 0.87 L/kg
bioavailability [12]: 78%
SMILES: C[C@H](CN)Oc1ccc2ncc(-c3cc4ccccc4o3)n2n1
T/C [4]: 0.33

IC50 [13]: 50 µM
IC50 [14]: 147 µM
SMILES: Cc1c(C(=O)O)sc2ncnc(Nc3ccc(F)cc3OC(CF)CF)c12

IC50 ([1]; read-out: pIC50 (converted)): 10 nM
IC50 [2]: 7.94 nM
SMILES: CN(C)CCCNC(=O)c1nc2c(N3CCc4ccccc43)ncnc2s1

IC50 ([1]; read-out: pIC50 (converted)): 12.6 nM
IC50 [2]: 12.6 nM
SMILES: CN(C)CCCNC(=O)c1cc2ncnc(N3CCc4cc(F)ccc43)c2n1C

Ki [15]: 120 nM
GI50 (MV4-11 [16]): 780 nM
SMILES: Cc1c(-c2ccnc(Nc3ccccc3OC(F)F)n2)sc(=O)n1C
GI50 [17]: 880 nM

IC50 ([1]; read-out: pIC50 (converted)): 50.1 nM
IC50 [2]: 31.6 nM
SMILES: CC(C)Oc1cc(F)ccc1Nc1ncnc2sc(C(=O)NCCN3CCNCC3)nc12

IC50 ([1]; read-out: pIC50 (converted)): 50.1 nM
IC50 [2]: 50.1 nM
SMILES: CC(C)Oc1cc(F)ccc1Nc1ncnc2sc(C(=O)NCC3CCNCC3)nc12

IC50 [18]: 21 nM
SMILES: CN1CCC(C(=O)Nc2ncc(-c3ccccc3)s2)CC1

IC50 ([1]; read-out: pIC50 (converted)): 2.51 nM
IC50 [2]: 2 nM
SMILES: CN(C)CCCNC(=O)c1nc2c(N3CCc4cc(F)ccc43)ncnc2s1

IC50 [20]: 4.7 µM
IC50 [21]: 2600 nM
SMILES: CN(Cc1ccon1)Cc1cc(-c2ccnc3cc(Cl)ccc23)ccc1O

Ki [22]: 740 nM
Ki [23]: 1320 nM
GI50 (MV4-11 [24]): 4.64 µM
SMILES: COc1ncc(C)cc1Nc1ncnc2[nH]ccc12

IC50 [25]: 107 nM
IC50 [26]: 55.7 nM
IC50 [27]: 9.4 nM
IC50 [28]: 26 nM
SMILES: C=CC(=O)Nc1cc(-n2c(=O)ccc3cnc4ccc(-c5cn[nH]c5)cc4c32)ccc1C

IC50 ([1]; read-out: pIC50 (converted)): 50.1 nM
IC50 [2]: 31.6 nM
SMILES: CNC(=O)c1nc2c(Nc3ccc(F)cc3OC(C)C)ncnc2s1

IC50 [1]: 18 nM
SMILES: O=S1(=Nc2cc(Cl)c3c(Nc4ccc(F)cc4O[C@H]4COC[C@@H]4O)ncnc3c2)CCC1

IC50 ([1]; read-out: pIC50 (converted)): 3.16 nM
IC50 [2]: 3.16 nM
SMILES: O=C(NCC1CCNCC1)c1nc2c(N3CCc4cc(Cl)ccc43)ncnc2s1
